The record followed here is patent US20190300842A1, “SYSTEMS AND METHODS FOR CONTINUOUSLY CULTURING MICROALGAE IN MIXOTROPHIC CONDITIONS” (HELIAE DEVELOPMENT, LLC, priority 2016, published 2019).

Like-named read-outs stand apart in the source and are kept apart here.

The subject of this test is bacterial growth. The procedure:
An experiment was conducted to compare a semi-continuous and continuous auxostat mixotrophic microalgae operation in an open outdoor bioreactor utilizing recycled media. The outdoor bioreactor system, protocols, and type of microalgae (Chlorella) was the same as described in Example 7. Different treatments were applied to the centrate resulting from membrane filter separation. The continuous media was treated with 14 g/L acetic acid. […] The media used for semi-continuous after each partial harvest was treated with 100% filtered ozone and stabilized by refrigeration at 4° C. After the first harvest, continuous treatment started in two of the four reactors. In the time between the continuous switch and the first partial harvest, non-recycled continuous feed media was used to maintain pH on the continuous cultures through the pH auxostat.

`CC(=O)O` [Acetic acid, acetic acid]: the “bacterial growth in centrate (quantity not named in Table 4)” value is, setting by setting: (acetic acid 5 g/L, 7 days) 0.00; (acetic acid 5 g/L, 14 days) 0.00; (acetic acid 5 g/L, 21 days) 0.00; (acetic acid 10 g/L, 7 days) 0.00; (acetic acid 10 g/L, 14 days) 0.00; (acetic acid 10 g/L, 21 days) 0.00. The “bacterial growth in centrate (quantity not named in Table 4)” value (acetic acid 15 g/L, 7 days) came out at 0.00; the “bacterial growth in centrate (quantity not named in Table 4)” value (acetic acid 15 g/L, 14 days) amounted to 0.00; the “bacterial growth in centrate (quantity not named in Table 4)” value (acetic acid 15 g/L, 21 days) stood at 0.00. For the same compound, for the setting “addition of at least 5 g/L acetic acid”, the “period for which the centrate could be stabilized” value is reported as greater than 21 days. For the same compound, where the note is “treatments of 5 g/L acetic acid and above, up to 21 days”, the bacterial growth entry is on record as “No bacterial growth was observed”.
